Holding throughout (test): DTP human tumour cell line panel, 48 h
Experiment [1] has as its system HCC-2998 colon.
Experiment [2] concerns MOLT-4 leukemia.
Experiment [3] has as its system ACHN renal.
Experiment [4] has as its system MDA-MB-231 breast.
The test system of experiment [5] is A498 renal.
Experiment [6] concerns OVCAR-3 ovarian.
The subject of experiment [7] is SK-MEL-2 melanoma.
Experiment [8] relates to IGROV1 ovarian.
For experiment [9], the system named is SNB-75 CNS.
Experiment [10] relates to OVCAR-8 ovarian.

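Test compounds were applied to cells in 96-well plates for 48 hours at 5 doses. GI50: concentration for 50% inhibition of growth. TGI is the concentration that stops growth completely.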

For orientation: TGI means the concentration at which net growth stops. Take `COc1ccc2nc3cc([N+](=O)[O-])ccc3c(Nc3ccc(S(=O)(=O)NC(C)=O)cc3)c2c1`: the TGI in experiment [1], in experiment [2], in experiment [3], in [4], in [5] and in experiment [6] was greater than 100 µM throughout. The concentration for total growth inhibition (TGI) in [7] is greater than 100 µM.
`CCCCCC(C)SC1(C(=O)OC)CC(OC(C)=O)C(NC(C)=O)C([C@H](OC(C)=O)[C@@H](COC(C)=O)OC(C)=O)O1` (stereo partly specified): the TGI in experiment [1], in [8], in experiment [2], in experiment [3], in [9] and in experiment [4] was greater than 100 µM each time. In addition, the TGI in experiment [5] was greater than 100 µM; in experiment [6], greater than 100 µM; in [10] it was greater than 100 µM; in [7] it was 64.4 µM.
As to `CCNC(=O)c1cc(/C=C/c2ccc([N+](=O)[O-])o2)nc2ccccc12`, the TGI was greater than 100 µM in experiment [1]; greater than 65.8 µM in [8]; greater than 95.4 µM in [2]; greater than 100 µM in experiment [3]; 63.8 µM in [9]; greater than 100 µM in experiment [4]. The TGI was 71 µM in experiment [5], greater than 100 µM in [6], greater than 100 µM in experiment [10] and 16.6 µM in [7].
The term GI50 denotes the concentration that inhibits growth by half. Consider `C[C@@H]1CC[C@H]2C(C(O)CCCCC(O)C3=C(C(F)(F)F)O[C@@H]4O[C@@]5(C)CC[C@H]6[C@H](C)CC[C@@H]3[C@@]46OO5)=C(C(F)(F)F)O[C@@H]3O[C@@]4(C)CC[C@@H]1[C@]32OO4` (stereo partly specified), for which the GI50 is 15.6 µM in experiment [8]; 6.35 µM in experiment [2]; 13.9 µM in [3]; 42.4 µM in experiment [9]; 16.2 µM in experiment [4]; 45.6 µM in experiment [5]. Moreover, the GI50 in [6] is 7.26 µM; in [10] it was 11.3 µM; in experiment [7], greater than 100 µM. Moreover, the total growth inhibition concentration (TGI) in [8], in [2], in experiment [3], in experiment [9], in experiment [4] and in experiment [5] was greater than 100 µM throughout. In addition, the TGI in [6], in experiment [10] and in experiment [7] was greater than 100 µM in each case.
Consider `C[C@H]1C[C@H]2[C@@H]3C(C)(C)O[C@]4(O)C(=O)[C@]5(O)[C@@H](C)CC[C@H]1[C@]25C(=O)[C@]34C`, for which the TGI in experiment [8] was greater than 100 µM; in experiment [2] it was 80.7 µM; in experiment [3] it was 72.6 µM; in experiment [4], greater than 100 µM; in [5], 87 µM; in [6], 68.1 µM. Moreover, the TGI in experiment [10] is greater than 100 µM; in experiment [7], 84.3 µM.
Regarding `COc1ccc(-n2c(=O)n(C)c(=O)n2-c2ccc(OC)cc2)cc1`, the concentration for total growth inhibition (TGI) in experiment [8], in experiment [2], in experiment [3], in [9], in experiment [4] and in experiment [5] was greater than 100 µM throughout. Further, the total growth inhibition concentration (TGI) in experiment [6], in experiment [10] and in [7] was greater than 100 µM in each case.
Turning to `CC(C)(Oc1ccc(Cl)cc1)C(=O)N(C(=O)N1CCC(c2ccccc2)CC1)c1ccccc1`, the concentration for total growth inhibition (TGI) in experiment [1] was greater than 100 µM; in experiment [8], greater than 100 µM; in experiment [2] it was greater than 28.3 µM; in [3] it was greater than 100 µM; in experiment [9] it was greater than 83.2 µM; in experiment [4], greater than 100 µM. The total growth inhibition concentration (TGI) in experiment [5], in [6], in experiment [10] and in experiment [7] was greater than 100 µM each time.
As for `Cc1cc(N2CCCC2)nc(N(CCNc2ccnc3cc(Cl)ccc23)Cc2ccco2)n1`, the GI50 in experiment [1] is 4.58 µM; in experiment [8], 2.5 µM; in experiment [3], 6.53 µM; in experiment [9], 10.7 µM; in experiment [4] it was 3.14 µM; in [5], 1.92 µM. For the same compound, the GI50 in experiment [6] is 3.4 µM; in experiment [10] it was 4.35 µM; in experiment [7], 18 µM. Also, the concentration for total growth inhibition (TGI) is 56.7 µM in experiment [1]; greater than 100 µM in experiment [8]; greater than 100 µM in experiment [3]; 60.7 µM in experiment [9]; 23.7 µM in experiment [4]; 7.79 µM in [5]. The results for the TGI in [6], in [10] and in experiment [7] were 42.3 µM, greater than 100 µM and greater than 100 µM, respectively.
On to `CCOC(=O)c1nc2ccc(C(F)(F)F)cc2nc1Oc1cc(OC)cc(OC)c1`, for which the concentration for total growth inhibition (TGI) in experiment [8] is greater than 100 µM; in experiment [2], greater than 100 µM; in [3], greater than 100 µM; in [9] it was 75.6 µM; in [4], greater than 100 µM; in [5] it was greater than 100 µM. Moreover, the concentration for total growth inhibition (TGI) in [6], in experiment [10] and in experiment [7] was greater than 100 µM in each case.
`NNC(=O)Cn1c2ccc(Br)cc2c2nc3ccccc3nc21`: the concentration for total growth inhibition (TGI) in experiment [8], in experiment [2], in [3], in experiment [9], in experiment [4] and in [5] was greater than 100 µM each time. Further, the TGI in experiment [6], in experiment [10] and in experiment [7] was greater than 100 µM throughout.
With `CCOC(=O)c1cc2c(C(=O)c3ccc([N+](=O)[O-])cc3)c(C(C)=O)ccc2[nH]1`, the TGI in experiment [1] is greater than 100 µM; in experiment [8], greater than 100 µM; in experiment [2], greater than 100 µM; in [3], greater than 100 µM; in experiment [9], 32.9 µM; in experiment [4] it was 53.4 µM. The TGI in experiment [5], in experiment [6] and in [7] was greater than 100 µM each time.
Take `O=C(Nc1nc2ccccc2s1)c1cc([N+](=O)[O-])ccc1Cl`: the TGI was 53.6 µM in experiment [1]; 9.93 µM in experiment [2]; greater than 100 µM in experiment [3]; greater than 100 µM in experiment [9]; greater than 100 µM in experiment [4]; greater than 100 µM in [5]. Further, the total growth inhibition concentration (TGI) in experiment [6] is greater than 82.5 µM; in [10], greater than 45.4 µM; in [7], greater than 100 µM.
